{"source": "paper PMC8492656", "about": "“Machine learning-guided acyl-ACP reductase engineering for improved in vivo fatty alcohol production” (Nature Communications, 2021)", "target": "T1, MA-ACR (parent A, A-AAAAAAAA) (Marinobacter nauticus, UniProt A1U3L3)", "T1 construct": "gene Maqu_2507; full-length two-domain enzyme (N-terminal AHR, C-terminal ATR), pET28, E. coli host, purified by the same method as His-tagged E. coli ACP; reported elsewhere as tetrameric", "T1 sequence (A1U3L3 1-661)": "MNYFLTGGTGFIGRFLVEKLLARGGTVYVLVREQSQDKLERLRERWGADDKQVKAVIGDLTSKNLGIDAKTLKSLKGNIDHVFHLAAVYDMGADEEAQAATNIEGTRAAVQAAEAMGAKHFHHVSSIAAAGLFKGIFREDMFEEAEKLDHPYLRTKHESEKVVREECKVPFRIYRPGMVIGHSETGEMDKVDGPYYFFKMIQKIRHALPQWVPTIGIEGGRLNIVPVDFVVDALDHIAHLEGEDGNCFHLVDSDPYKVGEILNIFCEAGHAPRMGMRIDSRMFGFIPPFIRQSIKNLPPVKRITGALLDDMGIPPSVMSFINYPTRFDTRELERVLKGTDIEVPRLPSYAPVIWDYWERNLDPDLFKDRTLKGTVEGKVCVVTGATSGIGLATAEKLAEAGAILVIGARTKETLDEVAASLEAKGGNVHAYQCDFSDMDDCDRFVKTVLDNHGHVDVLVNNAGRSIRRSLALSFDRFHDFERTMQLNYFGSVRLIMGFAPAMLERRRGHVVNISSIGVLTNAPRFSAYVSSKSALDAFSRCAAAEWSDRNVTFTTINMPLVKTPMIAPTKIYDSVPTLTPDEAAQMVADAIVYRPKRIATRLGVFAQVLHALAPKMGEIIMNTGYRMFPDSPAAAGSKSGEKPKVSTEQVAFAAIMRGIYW", "experiment": "DTNB release assay, A412, 96-well plate", "type": "biochemical", "settings": "200 µM NADPH, 1 µM enzyme, 250-252 µM DTNB, 20 mM Tris, 50 mM NaCl, pH 7", "data": [{"smiles": "CCCCCCCCCCCCCCCC(=O)SCCNC(=O)CCNC(=O)[C@H](O)C(C)(C)COP(=O)(O)OP(=O)(O)OC[C@H]1O[C@@H](n2cnc3c(N)ncnc32)[C@H](O)[C@@H]1OP(=O)(O)O", "note": "[palmitoyl-CoA]", "values": [{"measurement": "DTNB release assay, A412, 96-well plate", "result": "ATR-83 has a lower activity than the parents on palmitoyl-CoA"}]}]}
